# From patent US20030219467A1, “Method for the inhibition of methanogensis” (The Board of Regents of the University of Nebraska, priority 2001, published 2003)
# Read-outs that look alike come from different tables or passages of the source.
# Legend:
# ruminal organisms = test: Ruminal fluid batch culture (artificial rumen): growth inhibition / methane formation; format: cell-based, steers
# RFA-P synthase = target: T1, RFA-P synthase (Archaeoglobus fulgidus, UniProt O28190); test: biochemical; format: biochemical
# T1 sequence (O28190 1-313): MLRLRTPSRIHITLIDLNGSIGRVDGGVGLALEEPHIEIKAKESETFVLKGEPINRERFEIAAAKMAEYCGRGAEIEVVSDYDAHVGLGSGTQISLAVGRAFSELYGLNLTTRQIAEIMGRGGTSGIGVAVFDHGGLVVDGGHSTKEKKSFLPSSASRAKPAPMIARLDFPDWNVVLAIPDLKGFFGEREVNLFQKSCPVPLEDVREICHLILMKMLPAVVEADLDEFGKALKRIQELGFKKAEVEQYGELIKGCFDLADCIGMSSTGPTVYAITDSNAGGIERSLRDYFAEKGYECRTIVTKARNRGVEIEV
# M. marburgensis [1] = test: microbe, parasite or virus in culture; format: cell-based; conditions: for inhibition of growth of Methanothermobacter marburgensis (figure legend): FIG. 4: 1000 μM A2, 300 μM and 500 μM A4; for MIC: read-out: Inhibition of Growth M. marburgensis: concentration of compound which completely inhibited growth
# Moorella thermoacetica = test: Inhibition of growth of acetogen Moorella thermoacetica; format: cell-based; conditions: FIG. 5
# M. marburgensis [2] = format: cell-based
# [3] = inhibition constant, substrates at saturating concentrations, first tested at 1 mM, competitive inhibition fit, read-out: Ki
# [4] = total methane over 48 hours, compound at (100), 600 micromoles without inhibitor
# [5] = Methanothermobacter marburgensis, H2/CO2-grown, 65° C., OD 580 nm, words refer to 1 millimolar
# [6] = Methanothermobacter marburgensis
compound,measurement,setting,value
O=C(O)c1ccc(NCCO)cc1 [4-(2-hydroxyethylamino)benzoate],"methane production, % of the control level","ruminal organisms; artificial rumen, 9 mM compound",2.5%
CCNc1ccc(C(=O)O)cc1 [4-(ethylamino)benzoate],"methane production, % of the control level",ruminal organisms,2.5%
CC(C)Nc1ccc(C(=O)O)cc1 [4-(isopropylamino)benzoic acid],inhibition of RFA-P synthase (figure legend),RFA-P synthase,inhibition of RFA-P synthase
same,inhibition of methanogen growth (figure legend),"M. marburgensis [1]; FIG. 7A: M. marburgensis, 15, 25, 75 and 90 micromoles of compound, OD 580 nm",inhibition of methanogen growth
O=C(O)c1ccc(NCc2ccccn2)cc1 [4-[(2-pyridylmethyl)amino]benzoic acid],concentration that completely arrests growth of and methane formation by M. marburgensis,M. marburgensis [1],100 mM
same,reversal of inhibition by supplementing the medium with pABA,M. marburgensis [1]; M. marburgensis,fully reversed
NCc1ccc(B(O)O)cc1 [Compound A2],inhibition of growth of Moorella thermoacetica (figure legend),Moorella thermoacetica,inability
same,Ki,RFA-P synthase; [3],140 µM
same,inhibition of growth of Methanothermobacter marburgensis (figure legend),M. marburgensis [1],inhibit growth
CC(C)Nc1ccc(C(=O)O)cc1 [Compound A3],Methane Produced,M. marburgensis [2]; [4],0.01 μ moles
same,Ki,RFA-P synthase; [3],9 µM
same,MIC,M. marburgensis [1]; [5],100 µM
CC(C)CNc1ccc(C(=O)O)cc1 [Compound A4],Methane Produced,"M. marburgensis [2]; total methane over 48 hours, compound at (500), 600 micromoles without inhibitor",0.02 μ moles
same,inhibition of growth of Moorella thermoacetica (figure legend),Moorella thermoacetica,inability
same,inhibition of RFA-P synthase (figure legend),RFA-P synthase,inhibit RFA-P synthase
same,Ki,RFA-P synthase; [3],10 µM
same,inhibition of growth of Methanothermobacter marburgensis (figure legend),M. marburgensis [1],inhibit growth
same,MIC,M. marburgensis [1]; [5],500 µM
O=C(O)c1ccc(NCCO)cc1 [Compound A5],Ki,RFA-P synthase; [3],17 µM
same,MIC,M. marburgensis [1]; [5],300 µM
O=C(O)c1ccc(NCc2ccco2)cc1 [Compound A6],Ki,RFA-P synthase; [3],7.5 µM
same,MIC,M. marburgensis [1]; [5],300 µM
"NCc1ccc(C(=O)O)cc1 [Compound A7, 4-(aminomethyl)benzoic acid]",Methane Produced,M. marburgensis [2],0.07 μ moles
same,inhibition of RFA-P synthase (figure legend),RFA-P synthase,inhibit RFA-P synthase
same,Ki,RFA-P synthase; [3],75 µM
"Nc1ccc(CC(=O)O)cc1 [Compound A9, (4-aminophenyl)acetic acid]",Ki,RFA-P synthase; [3],60 µM
same,MIC,M. marburgensis [1]; [6],1000 µM
CCOC(=O)c1ccc(NC(C)C)cc1 [Compound A11],Ki,RFA-P synthase; [3],130 µM
same,MIC,M. marburgensis [1]; [5],1000 µM
Nc1ccc(S(=O)(=O)O)cc1 [Compound A12],Ki,RFA-P synthase; [3],7 µM
CC(C)OP(=O)(O)c1ccc(N)cc1 [Compound A13],Ki,RFA-P synthase,15 µM
same,MIC,M. marburgensis [1]; [6],1000 µM
CCCCOP(=O)(O)c1ccc(N)cc1 [Compound A14],Ki,RFA-P synthase,25 µM
OCc1ccc(B(O)O)cc1 [Compound A15],Ki,RFA-P synthase; [3],9 µM
same,MIC,M. marburgensis [1]; [6],100 µM
Cc1cc(C(=O)O)ccc1NC(C)C [Compound A16],Ki,RFA-P synthase; [3],23 µM
same,MIC,M. marburgensis [1]; [5],300 µM
CCNc1ccc(C(=O)O)cc1 [Compound A19],Ki,RFA-P synthase,155 µM
same,MIC,M. marburgensis [1]; [6],300 µM
CCCNc1ccc(C(=O)O)cc1 [Compound A20],Methane Produced,"M. marburgensis [2]; total methane over 48 hours, compound at (600), 600 micromoles without inhibitor",0.05 μ moles
same,inhibition of RFA-P synthase (figure legend),RFA-P synthase,inhibit RFA-P synthase
same,Ki,RFA-P synthase; [3],20 µM
same,MIC,M. marburgensis [1]; [5],600 µM
CCCCCCNc1ccc(C(=O)O)cc1 [Compound A21],MIC,M. marburgensis [1]; [5],500 µM
CC(Nc1ccc(C(=O)O)cc1)C(F)(F)F (centres unmarked) [Compound A22],Ki,RFA-P synthase; [3],59 µM
CC(C)CCNc1ccc(C(=O)O)cc1 [Compound A24],MIC,M. marburgensis [1]; [5],1000 µM
O=C(O)c1ccc(NC2CCCC2)cc1 [Compound A25],MIC,M. marburgensis [1]; [5],1000 µM
O=C(O)c1ccc(NCc2ccoc2)cc1 [Compound A26],Methane Produced,M. marburgensis [2]; [4],0.06 μ moles
same,Ki,RFA-P synthase; [3],84 µM
same,MIC,M. marburgensis [1]; [5],100 µM
O=C(O)c1ccc(NCc2cccs2)cc1 [Compound A27],Ki,RFA-P synthase; [3],72 µM
O=C(O)c1ccc(NCc2ccsc2)cc1 [Compound A28],Ki,RFA-P synthase; [3],55 µM
same,MIC,M. marburgensis [1]; [5],1000 µM
O=C(O)c1ccc(NCc2ccccc2)cc1 [Compound A29],Ki,RFA-P synthase; [3],51 µM
same,MIC,M. marburgensis [1]; [5],500 µM
O=C(O)c1ccc(NCc2c(F)c(F)c(F)c(F)c2F)cc1 [Compound A30],MIC,M. marburgensis [1]; [5],500 µM
O=C(O)c1ccc(NCc2ccccc2O)cc1 [Compound A31],Ki,RFA-P synthase; [3],705 µM
same,MIC,M. marburgensis [1]; [5],1000 µM
O=C(O)c1ccc(NCc2ccc(O)cc2)cc1 [Compound A32],MIC,M. marburgensis [1]; [5],300 µM
O=C(O)c1ccc(NCc2ccccn2)cc1 [Compound A33],Methane Produced,"M. marburgensis [2]; total methane over 48 hours, compound at (0.1), 600 micromoles without inhibitor",0.08 μ moles
same,Ki,RFA-P synthase; [3],19 µM
same,MIC,M. marburgensis [1]; [5],0.1 µM
Cc1cccc(CNc2ccc(C(=O)O)cc2)n1 [Compound A34],Ki,RFA-P synthase; [3],19 µM
O=C(O)c1ccc(NCc2ccc3ccccc3n2)cc1 [Compound A35],MIC,M. marburgensis [1]; [5],1000 µM
O=C(O)c1ccc(NCc2ccncc2)cc1 [Compound A36],MIC,M. marburgensis [1]; [5],1000 µM
Nc1ccc(C(=O)O)cc1O [Compound A38],MIC,M. marburgensis [1]; [5],500 µM
Nc1cc(C(=O)O)ccn1 [Compound A39],MIC,M. marburgensis [1]; [5],1000 µM
O=C(O)c1ccc(CO)cc1 [Compound A40],Ki,RFA-P synthase; [3],270 µM
CCC(C(=O)O)c1ccc(N)cc1 (centres unmarked) [Compound A41],MIC,M. marburgensis [1]; [5],500 µM
O=C(O)Cc1ccc(NCc2ccco2)cc1 [Compound A42],MIC,M. marburgensis [1]; [5],1000 µM
Nc1cccc(CC(=O)O)c1 [Compound A43],MIC,M. marburgensis [1]; [5],500 µM
O=C(O)Cc1ccc(O)cc1 [Compound A44],Ki,RFA-P synthase,115 µM
Cc1cc(S(=O)(=O)O)ccc1N [Compound A45],MIC,M. marburgensis [1]; [6],500 µM
CCOP(=O)(OCC)c1ccc(NCC(C)C)cc1 [Compound A47],MIC,M. marburgensis [1],500 µM
CCOP(=O)(O)c1ccc(N)cc1 [Compound A48],Ki,RFA-P synthase,65 µM
Nc1ccc(P(=O)(O)O)cc1 [Compound A49],Ki,RFA-P synthase,85 µM
CC(C)Nc1ccc(P(=O)(O)OC(C)C)cc1 [Compound A50],MIC,M. marburgensis [1]; [6],100 µM
CC(C)OP(=O)(O)c1ccc(NCc2ccco2)cc1 [Compound A51],MIC,M. marburgensis [1]; [6],100 µM
CC(C)OP(=O)(O)c1ccc(NCc2cccnc2)cc1 [Compound A52],MIC,M. marburgensis [1]; [6],1000 µM
CCCCOP(=O)(O)c1ccc(NC(C)C)cc1 [Compound A53],Ki,RFA-P synthase,25 µM
same,MIC,M. marburgensis [1]; [6],300 µM
CCCCOP(=O)(O)c1ccc(NCc2ccccn2)cc1 [Compound A55],Ki,RFA-P synthase,25 µM
same,MIC,M. marburgensis [1]; [6],100 µM
CNc1ccc(C(=O)O)cc1 [Compound A56],Ki,RFA-P synthase; [3],145 µM
CCCCNc1ccc(C(=O)O)cc1 [Compound A58],MIC,M. marburgensis [1]; [6],1000 µM
CCCOC(=O)c1ccc(NC(C)C)cc1 [Compound A65],Ki,RFA-P synthase; [3],130 µM
CCCCOC(=O)c1ccc(NC(C)C)cc1 [Compound A66],Ki,RFA-P synthase; [3],190 µM
same,MIC,M. marburgensis [1]; [5],1000 µM
OB(O)c1ccncc1 [Compound A74],Ki,RFA-P synthase; [3],200 µM
Nc1ccc(/C=C/C(=O)O)cc1 [Compound A80],MIC,M. marburgensis [1]; [5],500 µM
O=C(O)[C@H]1CC[C@@H](NCc2ccco2)CC1 [Compound B1],Ki,RFA-P synthase; [3],63 µM
same,MIC,M. marburgensis [1]; [5],0.1 µM
O=C(O)[C@H]1CC[C@H](NCc2ccco2)CC1 [Compound B2],MIC,M. marburgensis [1]; [5],500 µM
CC(C)CN[C@H]1CC[C@@H](C(=O)O)CC1 [Compound B3],Ki,RFA-P synthase; [3],44 µM
N[C@H]1CC[C@H](C(=O)O)CC1 [Compound B7],MIC,M. marburgensis [1]; [5],500 µM
O=P(O)(O)OC[C@H]1N[C@@H](c2ccccc2)[C@H](O)[C@@H]1O [Compound C1],Ki,RFA-P synthase; [3],30 µM
same,MIC,M. marburgensis [1]; [5],500 µM
OCc1ccc([C@@H]2N[C@H](CO)[C@@H](O)[C@H]2O)cc1 [Compound C4],MIC,M. marburgensis [1]; [5],1000 µM
O=C(O)c1c[nH]cn1 [Compound D3],MIC,M. marburgensis [1]; [6],1000 µM
Nc1nc(CC(=O)O)cs1 [Compound D6],MIC,M. marburgensis [1]; [5],500 µM
Nc1n[nH]c(C(=O)O)n1 [Compound D7],MIC,M. marburgensis [1]; [5],1000 µM
